Assays:
Assay in all cases: Bliss excess, mean over the matrix (fraction); higher = more synergy
[1] = test system: KINGS-1 (Low Grade Glioma)
Method in brief: (§1)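 Cell lines in DMEM/F12 or RPMI with 10% FBS were plated in 1536-well plates, held 24 hours at 37°C, 5% CO2, then given two-drug dose matrices for 72 hours (DMSO typically 0.2%). Viability was read by CellTiter-Glo 2.0 luminescence and scaled as inhibition from 0 (vehicle wells) to 1 (blank wells). Combination Emax is the second-highest inhibition in the matrix; Bliss excess is observed combination effect minus expected EA + EB − EA·EB, EA and EB being single-agent effects.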

[2] = test system: NCI-H2347 (Lung Adenocarcinoma)
Method in brief: as §1

[3] = test system: KYSE-150 (Esophageal Squamous Cell Carcinoma)
Method in brief: as §1

[4] = test system: HuP-T3 (Pancreatic Carcinoma)
Method in brief: as §1

EW-13 (Ewing's Sarcoma) = test system: EW-13 (Ewing's Sarcoma)
Method in brief: as §1

[5] = test system: KLE (Endometrial Carcinoma)
Method in brief: as §1

[6] = test system: EBC-1 (Squamous Cell Lung Carcinoma)
Method in brief: as §1

[7] = test system: KU-19-19 (Bladder Carcinoma)
Method in brief: as §1

[8] = test system: OVISE (Ovarian Carcinoma)
Method in brief: as §1

[9] = test system: KYSE-50 (Esophageal Squamous Cell Carcinoma)
Method in brief: as §1

GOTO (Neuroblastoma) = test system: GOTO (Neuroblastoma)
Method in brief: as §1

[10] = test system: SCC-3 (B-Cell Non-Hodgkin's Lymphoma)
Method in brief: as §1

NH-12 (Neuroblastoma) = test system: NH-12 (Neuroblastoma)
Method in brief: as §1

[11] = test system: EMC-BAC-2 (Non-Small Cell Lung Carcinoma)
Method in brief: as §1

Row | Structure (SMILES) | Bliss excess [1] | Bliss excess [2] | Bliss excess [3] | Bliss excess [4] | Bliss excess (EW-13 (Ewing's Sarcoma)) | Bliss excess [5] | Bliss excess [6] | Bliss excess [7] | Bliss excess [8] | Bliss excess [9] | Bliss excess (GOTO (Neuroblastoma)) | Bliss excess [10] | Bliss excess (NH-12 (Neuroblastoma)) | Bliss excess [11]
1 | CC1(C)CCC(CN2CCN(c3ccc(C(=O)NS(=O)(=O)c4ccc(NCC5CCOCC5)c([N+](=O)[O-])c4)c(Oc4cnc5[nH]ccc5c4)c3)CC2)=C(c2ccc(Cl)cc2)C1 [Venetoclax] + Cc1cc2ncnn2cc1Nc1ncc2c(n1)n(C1CCOCC1)c(=O)n2C [AZD7648] (first compound max 1 µM, 7x7, partner max 10 µM) | -0.0474 | -0.0665 | -0.0509 | -0.0331 | -0.0417 | -0.0432 | 0.031 | -0.0571 | -0.0464 | 0.0065 | -0.0442 | -0.0016 | -0.0072 | -0.0596
2 | COc1nnc2ccc(N3CCC(c4ccc(OCCN5CCN(C)C(=O)[C@H]5C)cc4)CC3)nn12 [AZD5153] + CN(CC[C@H](CSC1=CC=CC=C1)NC2=C(C=C(C=C2)S(=O)(=O)NC(=O)C3=CC=C(C=C3)N4CCC(CC4)[C@H](C5=CC=CC=C5C6=CC=C(C=C6)Cl)O)S(=O)(=O)C(F)(F)F)CCO [AZD4320] (first compound max 1 µM, 7x7, partner max 1 µM) | – | -0.042 | 0.0321 | 0.0559 | -0.0243 | 0.0847 | 0.0628 | 0.0829 | 0.0504 | 0.0999 | 0.065 | 0.0235 | -0.0413 | 0.0491
3 | C[C@@H](c1ccc2nccn2c1)n1nnc2ncc(-c3cnn(C)c3)nc21 [Savolitinib] + Cc1c2c(nn1C)CSCc1cc(n(C)n1)CSc1cc(c3ccccc3c1)OCCCc1c(C(=O)O)n(C)c3c-2c(Cl)ccc13 [AZD5991] (first compound max 1 µM, 7x7, partner max 1 µM) | 0.0058 | -0.0559 | -0.0428 | -0.0526 | -0.0546 | -0.0822 | 0.0076 | -0.0494 | -0.0291 | -0.0382 | -0.0227 | 0.0239 | -0.0375 | -0.0767
4 | C=CCn1c(=O)c2cnc(Nc3ccc(N4CCN(C)CC4)cc3)nc2n1-c1cccc(C(C)(C)O)n1 [AZD1775] + O=C(c1cc(Cc2n[nH]c(=O)c3ccccc23)ccc1F)N1CCN(C(=O)C2CC2)CC1 [Olaparib] (first compound max 1 µM, partner max 10 µM) | -0.0777 | -0.0921 | 0.0282 | -0.0047 | -0.0801 | -0.0499 | -0.0549 | -0.0107 | -0.0084 | -0.0206 | -0.0271 | -0.0259 | -0.0167 | -0.0526
5 | COc1cccc(OCCCN)c1-c1cc(Nc2cnc(C#N)cn2)n[nH]1 [Prexasertib] + C[C@@H]1COCCN1C2=NC(=NC(=C2)C3(CC3)[S@](=N)(=O)C)C4=C5C=CNC5=NC=C4 [AZD6738] (first compound max 1 µM, 7x7, partner max 10 µM) | 0.0426 | -0.081 | -0.0265 | 0.0032 | 0.0572 | -0.0393 | -0.0113 | -0.0796 | 0.0341 | 0.0034 | -0.0866 | -0.0201 | -0.0392 | 0.0076
6 | Cc1c2c(nn1C)CSCc1cc(n(C)n1)CSc1cc(c3ccccc3c1)OCCCc1c(C(=O)O)n(C)c3c-2c(Cl)ccc13 [AZD5991] + C1CN(CCC1(C(=O)N[C@@H](CCO)C2=CC=C(C=C2)Cl)N)C3=NC=NC4=C3C=CN4 [Capivasertib] (first compound max 1 µM, 7x7, partner max 3 µM) | -0.0468 | -0.0313 | 0.039 | -0.0186 | 0.0256 | -0.01 | 0.0259 | -0.0321 | -0.0651 | -0.0036 | 0.0118 | 0.102 | 0.0395 | 0.0302
7 | NC1(C(=O)N[C@@H](CCO)c2ccc(Cl)cc2)CCN(c2ncnc3[nH]ccc23)CC1 [Capivasertib] + CC(=O)c1c(C)c2cnc(Nc3ccc(N4CCNCC4)cn3)nc2n(C2CCCC2)c1=O [Palbociclib] (first compound max 10 µM, 7x7, partner max 10 µM) | 0.0102 | -0.0459 | 0.0446 | -0.0457 | -0.0161 | -0.0214 | 0.06 | 0.0041 | -0.0235 | -0.0129 | 0.0599 | 0.0001 | 0.0124 | -0.0727
8 | Cn1cnc2c(F)c(Nc3ccc(Br)cc3Cl)c(C(=O)NOCCO)cc21 [Selumetinib] + CC(C)n1c(=O)n(C)c2cnc3cc(F)c(-c4ccc(OCCCN5CCCCC5)nc4)cc3c21 [AZD1390] (first compound max 10 µM, 7x7, partner max 0.3 µM) | -0.0115 | -0.0275 | -0.0626 | -0.0046 | -0.0428 | -0.0057 | -0.0265 | -0.0257 | -0.0339 | -0.0046 | 0.0225 | 0.0273 | -0.064 | 0.0079
9 | CN(CCO)CC[C@H](CSc1ccccc1)Nc1ccc(S(=O)(=O)NC(=O)c2ccc(N3CCC([C@@H](O)c4ccccc4-c4ccc(Cl)cc4)CC3)cc2)cc1S(=O)(=O)C(F)(F)F [AZD4320] + C[C@@H](Nc1cc(F)cc(F)c1)c1cc(C(=O)N(C)C)cc2c(=O)cc(N3CCOCC3)oc12 [AZD8186] (first compound max 1 µM, 7x7, partner max 3 µM) | 0.0959 | 0.126 | -0.0055 | 0.038 | -0.015 | 0.0304 | 0.0576 | 0.0039 | -0.0322 | 0.0097 | 0.0279 | 0.0118 | -0.0224 | 0.0472
10 | Cc1cc2ncnn2cc1Nc1ncc2c(n1)n(C1CCOCC1)c(=O)n2C [AZD7648] + C[C@@H]1COCCN1C2=NC(=NC(=C2)C3(CC3)[S@](=N)(=O)C)C4=C5C=CNC5=NC=C4 [AZD6738] (first compound max 10 µM, 7x7, partner max 10 µM) | 0.0412 | -0.0451 | -0.0061 | -0.0453 | 0.0039 | -0.0639 | 0.0513 | -0.0127 | 0.0508 | -0.0089 | -0.0205 | -0.0083 | -0.0035 | 0.0575
11 | CC(=O)c1c(C)c2cnc(Nc3ccc(N4CCNCC4)cn3)nc2n(C2CCCC2)c1=O [Palbociclib] + Cc1c2c(nn1C)CSCc1cc(n(C)n1)CSc1cc(c3ccccc3c1)OCCCc1c(C(=O)O)n(C)c3c-2c(Cl)ccc13 [AZD5991] (first compound max 10 µM, 7x7, partner max 1 µM) | 0.0346 | -0.0677 | -0.0278 | -0.072 | -0.0346 | -0.082 | 0.0345 | -0.0215 | -0.0286 | -0.0658 | 0.0483 | 0.0284 | 0.0045 | -0.0991
12 | Cn1cnc2c(F)c(Nc3ccc(Br)cc3Cl)c(C(=O)NOCCO)cc21 [Selumetinib] + C=CCn1c(=O)c2cnc(Nc3ccc(N4CCN(C)CC4)cc3)nc2n1-c1cccc(C(C)(C)O)n1 [AZD1775] (first compound max 10 µM, partner max 1 µM) | 0.0173 | -0.0164 | 0.0705 | 0.0194 | -0.0742 | -0.0117 | 0.0508 | -0.0308 | -0.0436 | -0.0209 | -0.0119 | 0.0092 | -0.101 | -0.0711
13 | CS(=O)(=O)CCNCc1ccc(-c2ccc3ncnc(Nc4ccc(OCc5cccc(F)c5)c(Cl)c4)c3c2)o1 [Lapatinib] + NC1(c2ccc(-c3nc4ccn5c(=O)[nH]nc5c4cc3-c3ccccc3)cc2)CCC1 [MK-2206] (first compound max 10 µM, 7x7, partner max 10 µM) | 0.032 | -0.0315 | 0.0159 | – | – | – | – | -0.0103 | 0.0286 | – | – | – | – | –
14 | Cc1c2c(nn1C)CSCc1cc(n(C)n1)CSc1cc(c3ccccc3c1)OCCCc1c(C(=O)O)n(C)c3c-2c(Cl)ccc13 [AZD5991] + CCN(CCO)CCCOc1ccc2c(Nc3cc(CC(=O)Nc4cccc(F)c4)[nH]n3)ncnc2c1 [AZD2811] (first compound max 1 µM, 7x7, partner max 1 µM) | -0.0253 | 0.0102 | -0.0339 | -0.019 | 0.032 | -0.0923 | 0.0019 | 0.0376 | 0.0535 | – | -0.0245 | 0.0604 | -0.0331 | 0.0438
15 | CN(C)CCCOc1ccc(-c2ccc3ncc4c(c3c2)n(C2CCOCC2)c(=O)n4C)cn1 [AZD0156] + O=C(c1cc(Cc2n[nH]c(=O)c3ccccc23)ccc1F)N1CCN(C(=O)C2CC2)CC1 [Olaparib] (first compound max 3 µM, partner max 3 µM) | -0.0057 | -0.0089 | 0.116 | -0.0247 | – | -0.0506 | 0.0413 | 0.0781 | -0.0084 | 0.0152 | 0.0036 | 0.28 | -0.0131 | 0.147
16 | C=CCn1c(=O)c2cnc(Nc3ccc(N4CCN(C)CC4)cc3)nc2n1-c1cccc(C(C)(C)O)n1 [AZD1775] + C1CN(CCC1(C(=O)N[C@@H](CCO)C2=CC=C(C=C2)Cl)N)C3=NC=NC4=C3C=CN4 [Capivasertib] (first compound max 3 µM, partner max 3 µM) | -0.0687 | -0.0534 | 0.0064 | -0.0608 | – | -0.0627 | -0.0602 | -0.0174 | -0.101 | -0.0306 | -0.0109 | 0.0613 | -0.0728 | 0.0514
17 | C[C@@H](c1ccc2nccn2c1)n1nnc2ncc(-c3cnn(C)c3)nc21 [Savolitinib] + CN(CC[C@H](CSC1=CC=CC=C1)NC2=C(C=C(C=C2)S(=O)(=O)NC(=O)C3=CC=C(C=C3)N4CCC(CC4)[C@H](C5=CC=CC=C5C6=CC=C(C=C6)Cl)O)S(=O)(=O)C(F)(F)F)CCO [AZD4320] (first compound max 1 µM, 7x7, partner max 1 µM) | – | -0.0474 | -0.0775 | -0.0586 | -0.0577 | -0.0664 | -0.0067 | -0.0259 | -0.0472 | -0.011 | 0.0166 | -0.0083 | -0.0131 | -0.0794
18 | CC(=O)c1c(C)c2cnc(Nc3ccc(N4CCNCC4)cn3)nc2n(C2CCCC2)c1=O [Palbociclib] + CN(CC[C@H](CSC1=CC=CC=C1)NC2=C(C=C(C=C2)S(=O)(=O)NC(=O)C3=CC=C(C=C3)N4CCC(CC4)[C@H](C5=CC=CC=C5C6=CC=C(C=C6)Cl)O)S(=O)(=O)C(F)(F)F)CCO [AZD4320] (first compound max 10 µM, 7x7, partner max 1 µM) | – | -0.109 | -0.109 | -0.074 | -0.121 | -0.0276 | -0.0226 | -0.0482 | -0.0207 | -0.0228 | 0.0226 | -0.0046 | 0.0594 | -0.193

Source: the supplement of paper PMC11061612
